Data reported in the NIST ThermoML archive (doi:10.1021/acs.jced.5b00971).
Numbers after ± are expanded uncertainties.

Settings: Liquid; for viscosity: Capillary tube (Ostwald / Ubbelohde) method; for mass density: Pycnometric method; for thermal conductivity: Hot wire method

CCCCC(=O)O [pentanoic acid]
Settings | mass density [kg/m3] | thermal conductivity [W/m/K] | viscosity [mPa·s]
293.4 K | 939.7 ± 2 | – | 2.19 ± 0.04
296.1 K | – | 0.141 ± 0.003 | –
312.1 K | 922.3 ± 2 | – | 1.56 ± 0.04
324.1 K | – | 0.136 ± 0.003 | –
332.1 K | 904.1 ± 2 | – | 1.17 ± 0.04
348.6 K | – | 0.131 ± 0.003 | –
352.2 K | 885.4 ± 2.1 | – | 0.89 ± 0.04
368.1 K | 870.6 ± 2.1 | – | 0.75 ± 0.04
374 K | – | 0.126 ± 0.003 | –
388.4 K | 851 ± 2.1 | – | 0.6 ± 0.04
398 K | – | 0.122 ± 0.003 | –
408.3 K | 831.9 ± 2.1 | – | 0.5 ± 0.04
422.4 K | – | 0.118 ± 0.003 | –
428.2 K | 812.1 ± 2.1 | – | 0.41 ± 0.04
446.4 K | – | 0.115 ± 0.003 | –
471.3 K | – | 0.111 ± 0.003 | –

CCCCCCCC(=O)O [octanoic acid]
101.33 kPa
Settings | mass density [kg/m3] | thermal conductivity [W/m/K] | viscosity [mPa·s]
290.3 K | 910.3 ± 2 | – | –
293.3 K | – | – | 5.86 ± 0.06
297.2 K | – | 0.147 ± 0.003 | –
308 K | 898.2 ± 2 | – | 3.98 ± 0.05
322.3 K | – | 0.142 ± 0.003 | –
323.1 K | 885.9 ± 2 | – | 2.88 ± 0.05
338.1 K | 873.8 ± 2 | – | 2.17 ± 0.04
352.8 K | – | 0.136 ± 0.003 | –
353.1 K | 861.8 ± 2.1 | – | 1.69 ± 0.04
367.8 K | 849.7 ± 2.1 | – | 1.36 ± 0.04
383.1 K | 837.2 ± 2.1 | – | 1.11 ± 0.04
387.6 K | – | 0.13 ± 0.003 | –
398.1 K | 824.6 ± 2.1 | – | 0.92 ± 0.04
411.3 K | – | 0.124 ± 0.003 | –
412.9 K | 812.3 ± 2.1 | – | 0.78 ± 0.04
427.7 K | 799.2 ± 2.1 | – | 0.67 ± 0.04
442 K | – | 0.118 ± 0.003 | –
471.7 K | – | 0.112 ± 0.003 | –

CCCCCC(=O)O [hexanoic acid]
101.33 kPa
Settings | mass density [kg/m3] | thermal conductivity [W/m/K] | viscosity [mPa·s]
294.5 K | 926 ± 2 | – | –
294.6 K | – | – | 3.07 ± 0.05
296.9 K | – | 0.143 ± 0.003 | –
312.1 K | 910.5 ± 2 | – | 2.15 ± 0.04
325.7 K | – | 0.138 ± 0.003 | –
332.1 K | 893.1 ± 2 | – | 1.52 ± 0.04
347.4 K | – | 0.134 ± 0.003 | –
352.1 K | 875.8 ± 2.1 | – | 1.14 ± 0.04
368.1 K | 861.7 ± 2.1 | – | 0.94 ± 0.04
374.7 K | – | 0.128 ± 0.003 | –
388.4 K | 843.5 ± 2.1 | – | 0.73 ± 0.04
398.1 K | – | 0.124 ± 0.003 | –
408.3 K | 825.3 ± 2.1 | – | 0.6 ± 0.04
422.3 K | – | 0.12 ± 0.003 | –
428.3 K | 806.5 ± 2.1 | – | 0.49 ± 0.04
445.6 K | – | 0.116 ± 0.003 | –
471.2 K | – | 0.113 ± 0.003 | –

CCCCCCCCCCCCCC(=O)O [tetradecanoic acid]
101.33 kPa
Settings | mass density [kg/m3] | thermal conductivity [W/m/K] | viscosity [mPa·s]
332.1 K | 861.3 ± 2 | – | 7.77 ± 0.07
334.4 K | – | 0.158 ± 0.003 | –
349 K | – | 0.155 ± 0.003 | –
352.1 K | 846.9 ± 2 | – | 4.88 ± 0.05
368.2 K | 835.6 ± 2.1 | – | 3.53 ± 0.05
374.1 K | – | 0.149 ± 0.003 | –
388.2 K | 821.4 ± 2.1 | – | 2.48 ± 0.04
397.7 K | – | 0.144 ± 0.003 | –
408.2 K | 806.7 ± 2.1 | – | 1.79 ± 0.04
422.3 K | – | 0.139 ± 0.003 | –
427.9 K | 791.7 ± 2.1 | – | 1.35 ± 0.04
442.2 K | – | – | 1.13 ± 0.04
443.2 K | 780.9 ± 2.1 | – | –
447.3 K | – | 0.133 ± 0.003 | –
457.2 K | – | – | 0.95 ± 0.04
458.2 K | 769.3 ± 2.1 | – | –
471.9 K | – | 0.127 ± 0.003 | –
472.2 K | – | – | 0.81 ± 0.04
473.2 K | 758 ± 2.1 | – | –
